Results reported in publication PMC9031459, “Experimental Comparison of Primary and hiPS-Based In Vitro Blood–Brain Barrier Models for Pharmacological Research” (Pharmaceutics, 2022).

How the values were obtained:
[1] = tested on: co-culture model of human hiPS-BCECs and rat glial cells; set-up: method as in PMID 31690750; details: literature value ref 24; cited from earlier work
hiPS-BCECs [2] = experiment: Permeability/transport across hiPS-BCEC barrier in microfluidic Quasi Vivo QV600 setup; details: fluidic system; for caffeine concentration, basolateral side: 100 µM caffeine apical
Protocol: (§6) The microfluidic studies were performed using the commercial Quasi Vivo® QV600 system ([…] ., York, UK). […] On day 10, when the barrier has been established, the membrane containing the blood-brain barrier was inserted into the QV 600 chamber. The apical channel was filled with enriched endothelial medium (heSFM with 5% […] added to the basolateral channel. A fluidic flow with a flow rate of 200 μL min^-1 was established and experiments were performed for up to 4 days. […] For comparison, samples in the static setting were collected at the same time points with a separate insert for each time point. […] Standard dilutions of sample media were used for quantification and sample media from cell wells without sodium fluorescence application were used for background subtraction. All measurements were performed in duplex at least. […] Samples were collected from both the apical and basolateral circuits, filtered using Whatman Mini-UniPrepTM filters (VWR International, […] , Germany) and caffeine concentrations measured using HPLC. […] At a flow rate of 0.4 mL min^-1, 5 μL of sample was injected and separated at a column temperature of 60 °C.

[3] = as above; details: human, not told
Protocol: as §6

hiPS-BCECs [4] = experiment: Permeability/transport across hiPS-derived BCEC monolayer on membrane inserts (static); details: for caffeine concentration, basolateral side / caffeine concentration, apical side: Figure 8B (static system), 100 µM caffeine apical; for permeability coefficient: hiPS-BCECs
Protocol: (§1) The stem cell line UKKi011-A was differentiated according to the protocol published by Stebbins et al. with slight modifications (Figure 2B). Cells were seeded at a density of 5 × 10^3 cells cm^−2 on Matrigel-coated (Corning, Amsterdam, The Netherlands) 6-well plates and cultivated for 3 days in mTeSR1 medium (Stem Cell Technologies, Vancouver, BC, Canada) before initiating the differentiation. On day 0, the mTeSR1 medium was switched to unconditioned medium (DMEM/F12 with 20% knock-out serum replacement, 1% non-essential amino acids, 0.5% GlutaMAX and […] 2-mercaptoethanol) and medium was exchanged daily for 5 days. On day 6, the medium was changed to endothelial medium with growth factors (heSFM with 1% platelet-poor plasma-derived human serum (PDS; SigmaAldrich, Taufkirchen, Germany), 20 ng mL^−1 bFGF (R&D Systems, Minneapolis, MN, USA) and 10 µM retinoic acid (SigmaAldrich, Taufkirchen, Germany)). On day 8, cells were dissociated with Accutase for 25 min at 37 °C and seeded at a density of 1 × 10^6 cells cm^−2 in endothelial medium with growth factors. Cells were seeded onto membrane inserts with 3.0 µm pore size (VWR International, Darmstadt, Germany) and coated with 400 µg mL^−1 human collagen IV (SigmaAldrich, Taufkirchen, Germany) and 100 µg mL^−1 fibronectin (SigmaAldrich, Taufkirchen, Germany) in 0.05% acetic acid. The medium was changed 24 h after seeding to either endothelial medium without growth factors (heSFM with 1% PDS) or enriched endothelial medium (heSFM with 5% PDS) on the apical side and heSFM on the basolateral side. Experiments were performed on day 10 or 11.
(§2) The substances of interest were added to the apical side of the membranes, incubated for 3 h at 37 °C, 5% CO2 and 90% relative humidity, and then the samples were collected from the apical and basolateral compartment for measurement. In the microfluidic setup, sodium fluorescein and caffeine (SigmaAldrich, Taufkirchen, Germany) were added to the apical channel and samples were collected 4, 24, 48 (only caffeine) and 72 h after application from both fluidic channels.
(§3) Sodium fluorescein was added to a final concentration of 1 µg mL^−1, the samples were transferred to black 96-well plates and fluorescence was measured at an excitation of 485 nm and emission of 535 nm with a Tecan infinite 200 plate reader (Tecan Group Ltd., Männedorf, Switzerland).
(§4) After incubation, the apical and basolateral medium were collected separately, transferred to plastic vials containing 5 mL Ultima Gold scintillation liquid (Perkin Elmer, Waltham, MA, USA) and radioactive decay was measured with a Tri-Carb 2910TR Scintillation counter (Perkin Elmer, Waltham, MA, USA).
(§5) Caffeine was added to a final concentration of 100 µM to the apical circuit. […] Detection was achieved using a Diode-Array-Detector (DAD) at a wavelength of 275 nm.

[5] = as above; details: human
Protocol: as §1, §2, §3, §4, §5

pBCECs = experiment: Permeability across primary porcine BCEC monolayer on Transwell inserts (static); assay type: in vitro ADME, Sus scrofa domestica; details: 3 h incubation
Protocol: The substances of interest were added to the apical side of the membranes, incubated for 3 h at 37 °C, 5% CO2 and 90% relative humidity, and then the samples were collected from the apical and basolateral compartment for measurement.

[6] = static, established protocol / equal serum distribution (1% PDS both sides), apical application, 3 h incubation
[7] = static, serum only in apical medium (5% PDS apical, serum-free basolateral), 3 h incubation

In the case of `Cn1c(=O)c2c(ncn2C)n(C)c1=O` [caffeine], the “permeability coefficient, literature value” [1] is given as 3.1 × 10^–5 cm s^−1, the “caffeine concentration, basolateral side” value (hiPS-BCECs [2]; 4 h) is given as 5.91 ± 3.36 µM and the “caffeine concentration, basolateral side” value (hiPS-BCECs [2]; 24 h) is given as 14.85 ± 3.50 µM. The “caffeine concentration, basolateral side” value (hiPS-BCECs [2]; 48 h) was 17.08 ± 4.44 µM, the “caffeine concentration, basolateral side” value (hiPS-BCECs [2]; 72 h) was 17.72 ± 3.34 µM and the Papp at 100 µM [3] was 30.4 ×10⁻⁶ cm/s. For the same compound, the “caffeine concentration, basolateral side” value (hiPS-BCECs [4]; 4 h) was 24.46 ± 1.90 µM, the “caffeine concentration, apical side” value (hiPS-BCECs [4]; 24 h) was 36.30 ± 2.71 µM and the “caffeine concentration, basolateral side” value (hiPS-BCECs [4]; 24 h) was 36.19 ± 3.18 µM. For the same compound, the “caffeine concentration, apical side” value (hiPS-BCECs [4]; 48 h) was 37.74 ± 3.02 µM, the “caffeine concentration, basolateral side” value (hiPS-BCECs [4]; 48 h) was 37.97 ± 2.88 µM and the Papp at 100 µM [5] was 9 ×10⁻⁶ cm/s.
In the case of `O=C([O-])c1ccccc1-c1c2ccc(=O)cc-2oc2cc([O-])ccc12.[Na+].[Na+]` [sodium fluorescein], the permeability coefficient (hiPS-BCECs [2]; hiPS-BCECs, flow 200 µL min^−1, 5% PDS apical, serum-free basolateral) is reported as 2.75 × 10^–6 ± 1.61 × 10^–6 cm s^−1, the permeability coefficient (pBCECs; 5% FCS apical, serum-free basolateral) is reported as 6.2e-07 cm/s and the permeability coefficient (pBCECs; established protocol (serum-free medium on both sides), apical application) is reported as 1.85e-06 cm/s. The permeability coefficient (hiPS-BCECs [4]; static system compared with fluidic, 5% PDS apical, serum-free basolateral) was 0.81 × 10^–6 ± 0.82 × 10^–7 cm s^−1, the permeability coefficient (hiPS-BCECs [4]; [6]) was 1.41e-06 cm/s and the permeability coefficient (hiPS-BCECs [4]; [7]) was 8e-07 cm/s.
Work on inulin [[14C]-inulin] yielded a permeability coefficient (hiPS-BCECs [4]; [6]) of 3.19e-06 cm/s and a permeability coefficient (hiPS-BCECs [4]; [7]) of 8.9e-07 cm/s.
